Patent publication US11053204B2, “Pyrimidinyloxy benzene derivatives as herbicides” (FMC Corporation, priority 2015, dated 2021)

Assays:
Assay type in all cases: in vivo
[1] = tested on: velvetleaf (Abutilon theophrasti); assay: Test C preemergence, plant response rating; conditions: Abutilon theophrasti, pre-emergence, Preemergence
Procedure, shortened: (§1)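 After sowing in loam–sand blend or silt loam, pots were sprayed preemergence; separately grown 1- to 4-leaf plants were sprayed postemergence. Following 13 to 15 d under greenhouse conditions, injury was rated visually on a 0 to 100 scale.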

[2] = tested on: lambsquarters (Chenopodium album); assay: Test C preemergence, plant response rating; conditions: Chenopodium album, pre-emergence, Preemergence
Procedure, shortened: as §1

[3] = tested on: blackgrass (Alopecurus myosuroides); assay: Test C preemergence, plant response rating; conditions: Alopecurus myosuroides, pre-emergence, Preemergence
Procedure, shortened: as §1

[4] = tested on: foxtail, giant (giant foxtail, Setaria faberii); assay: Test C preemergence, plant response rating; conditions: Setaria faberi, pre-emergence, Preemergence
Procedure, shortened: as §1

soybean (Glycine max) [5] = assay: Test C preemergence, plant response rating; conditions: Glycine max, pre-emergence, Preemergence
Procedure, shortened: as §1

[6] = tested on: morningglory (Ipomoea coccinea); assay: Test C preemergence, plant response rating; conditions: Ipomoea, pre-emergence, Preemergence
Procedure, shortened: as §1

[7] = tested on: nutsedge, yellow (yellow nutsedge, Cyperus esculentus); assay: Test C preemergence, plant response rating; conditions: Cyperus, pre-emergence, Preemergence
Procedure, shortened: as §1

[8] = tested on: ryegrass, Italian (Italian ryegrass, Lolium multiflorum); assay: Test C preemergence, plant response rating; conditions: Lolium multiflorum, pre-emergence, Preemergence
Procedure, shortened: as §1

corn (Zea mays) [9] = assay: Test C preemergence, plant response rating; conditions: Zea mays, pre-emergence, Preemergence
Procedure, shortened: as §1

[10] = tested on: waterhemp (common waterhemp, Amaranthus rudis); assay: Test C preemergence, plant response rating; conditions: Amaranthus tuberculatus, pre-emergence, Preemergence
Procedure, shortened: as §1

[11] = tested on: wheat (winter wheat, Triticum aestivum); assay: Test C preemergence, plant response rating; conditions: Triticum aestivum, pre-emergence, Preemergence
Procedure, shortened: as §1

[12] = tested on: oilseed rape (Brassica napus); assay: Test C preemergence, plant response rating; conditions: Brassica napus, pre-emergence, Preemergence
Procedure, shortened: as §1

[13] = tested on: crabgrass, large (large crabgrass, Digitaria sanguinalis); assay: Test C preemergence, plant response rating; conditions: Digitaria sanguinalis, pre-emergence, Preemergence
Procedure, shortened: as §1

[14] = tested on: foxtail, giant (giant foxtail, Setaria faberii); assay: Test C postemergence, plant response rating; conditions: Setaria faberi, post-emergence
Procedure, shortened: as §1

[15] = tested on: galium (catchweed bedstraw, Galium aparine); assay: Test C postemergence, plant response rating; conditions: Galium, post-emergence
Procedure, shortened: as §1

kochia (Kochia scoparia) = assay: Test C postemergence, plant response rating; conditions: Bassia scoparia, post-emergence
Procedure, shortened: as §1

soybean (Glycine max) [16] = assay: Test C postemergence, plant response rating; conditions: Glycine max, post-emergence
Procedure, shortened: as §1

corn (Zea mays) [17] = assay: Test C postemergence, plant response rating; conditions: Zea mays, post-emergence
Procedure, shortened: as §1

[18] = tested on: waterhemp (common waterhemp, Amaranthus rudis); assay: Test C postemergence, plant response rating; conditions: for Plant response rating, Waterhemp: scale 0 to 100; for Waterhemp plant response rating: scale 0 to 100 (0 no effect, 100 complete control)
Procedure, shortened: as §1

[19] = tested on: oilseed rape (Brassica napus); assay: Test C postemergence, plant response rating; conditions: Brassica napus, post-emergence
Procedure, shortened: as §1

[20] = tested on: crabgrass, large (large crabgrass, Digitaria sanguinalis); assay: Test C postemergence, plant response rating; conditions: Digitaria sanguinalis, post-emergence
Procedure, shortened: as §1

[21] = 62 g ai/ha, scale 0 to 100 (0 no effect, 100 complete control)
[22] = 125 g ai/ha, scale 0 to 100 (0 no effect, 100 complete control)

SMILES: N#Cc1cccc(Oc2ncc(Cl)cn2)c1CCCCC(F)(F)F [Compound 73, 3-[(5-chloro-2-pyrimidinyl)oxy]-2-(5,5,5-trifluoropentyl)benzonitrile]
- pest or weed control at 125 g/ha ([1]; 125 g ai/ha, scale of 0 to 100): 95%
- pest or weed control at 16 g/ha ([1]; 16 g ai/ha, scale 0 to 100): 0%
- pest or weed control at 31 g/ha ([1]; 31 g ai/ha, scale 0 to 100): 30%
- pest or weed control at 62 g/ha ([1]; 62 g ai/ha, scale 0 to 100): 75%
- pest or weed control at 125 g/ha ([2]; 125 g ai/ha, scale of 0 to 100): 100%
- pest or weed control at 16 g/ha ([2]; 16 g ai/ha, scale 0 to 100): 85%
- pest or weed control at 31 g/ha ([2]; 31 g ai/ha, scale 0 to 100): 90%
- pest or weed control at 62 g/ha ([2]; 62 g ai/ha, scale 0 to 100): 90%
- pest or weed control at 62 g/ha ([3]; 62 g ai/ha, scale of 0 to 100): 100%
- pest or weed control at 125 g/ha ([3]; 125 g ai/ha, scale of 0 to 100): 100%
- pest or weed control at 16 g/ha ([3]; 16 g ai/ha, scale 0 to 100): 5%
- pest or weed control at 31 g/ha ([3]; 31 g ai/ha, scale 0 to 100): 98%
- pest or weed control at 62 g/ha ([4]; 62 g ai/ha, scale of 0 to 100): 100%
- pest or weed control at 125 g/ha ([4]; 125 g ai/ha, scale of 0 to 100): 100%
- pest or weed control at 16 g/ha ([4]; 16 g ai/ha, scale 0 to 100): 98%
- pest or weed control at 31 g/ha ([4]; 31 g ai/ha, scale 0 to 100): 100%
- plant injury at 125 g/ha (soybean (Glycine max) [5]; 125 g ai/ha, scale of 0 to 100): 40%
- plant injury at 16 g/ha (soybean (Glycine max) [5]; 16 g ai/ha, scale 0 to 100): 0%
- plant injury at 31 g/ha (soybean (Glycine max) [5]; 31 g ai/ha, scale 0 to 100): 0%
- plant injury at 62 g/ha (soybean (Glycine max) [5]; 62 g ai/ha, scale 0 to 100): 25%
- pest or weed control at 125 g/ha ([6]; 125 g ai/ha, scale of 0 to 100): 75%
- pest or weed control at 16 g/ha ([6]; 16 g ai/ha, scale 0 to 100): 0%
- pest or weed control at 31 g/ha ([6]; 31 g ai/ha, scale 0 to 100): 10%
- pest or weed control at 62 g/ha ([6]; 62 g ai/ha, scale 0 to 100): 60%
- pest or weed control at 125 g/ha ([7]; 125 g ai/ha, scale of 0 to 100): 10%
- pest or weed control at 16 g/ha ([7]; 16 g ai/ha, scale 0 to 100): 0%
- pest or weed control at 31 g/ha ([7]; 31 g ai/ha, scale 0 to 100): 0%
- pest or weed control at 62 g/ha ([7]; 62 g ai/ha, scale 0 to 100): 0%
- pest or weed control at 125 g/ha ([8]; 125 g ai/ha, scale of 0 to 100): 100%
- pest or weed control at 16 g/ha ([8]; 16 g ai/ha, scale 0 to 100): 30%
- pest or weed control at 31 g/ha ([8]; 31 g ai/ha, scale 0 to 100): 35%
- pest or weed control at 62 g/ha ([8]; 62 g ai/ha, scale 0 to 100): 85%
- Corn plant response rating (crop injury, 0 = no effect, 100 = complete kill) at 62 g/ha (corn (Zea mays) [9]; 62 g ai/ha, scale of 0 to 100): 40%
- Corn plant response rating (crop injury, 0 = no effect, 100 = complete kill) at 125 g/ha (corn (Zea mays) [9]; 125 g ai/ha, scale of 0 to 100): 50%
- Corn plant response rating (crop injury, 0 = no effect, 100 = complete kill) at 16 g/ha (corn (Zea mays) [9]; 16 g ai/ha, scale 0 to 100): 0%
- Corn plant response rating (crop injury, 0 = no effect, 100 = complete kill) at 31 g/ha (corn (Zea mays) [9]; 31 g ai/ha, scale 0 to 100): 20%
- pest or weed control at 125 g/ha ([10]; 125 g ai/ha, scale of 0 to 100): 100%
- pest or weed control at 16 g/ha ([10]; 16 g ai/ha, scale 0 to 100): 65%
- pest or weed control at 31 g/ha ([10]; 31 g ai/ha, scale 0 to 100): 100%
- pest or weed control at 62 g/ha ([10]; 62 g ai/ha, scale 0 to 100): 100%
- plant injury at 125 g/ha ([11]; 125 g ai/ha, scale of 0 to 100): 70%
- plant injury at 16 g/ha ([11]; 16 g ai/ha, scale 0 to 100): 0%
- plant injury at 31 g/ha ([11]; 31 g ai/ha, scale 0 to 100): 0%
- plant injury at 62 g/ha ([11]; 62 g ai/ha, scale 0 to 100): 30%
- plant injury at 125 g/ha ([12]; 125 g ai/ha, scale of 0 to 100): 65%
- plant injury at 16 g/ha ([12]; 16 g ai/ha, scale 0 to 100): 0%
- plant injury at 31 g/ha ([12]; 31 g ai/ha, scale 0 to 100): 20%
- plant injury at 62 g/ha ([12]; 62 g ai/ha, scale 0 to 100): 50%
- pest or weed control at 62 g/ha ([13]; 62 g ai/ha, scale of 0 to 100): 100%
- pest or weed control at 125 g/ha ([13]; 125 g ai/ha, scale of 0 to 100): 100%
- pest or weed control at 16 g/ha ([13]; 16 g ai/ha, scale 0 to 100): 98%
- pest or weed control at 31 g/ha ([13]; 31 g ai/ha, scale 0 to 100): 100%
- pest or weed control at 16 g/ha ([14]; 16 g ai/ha, scale 0 to 100): 15%
- pest or weed control at 31 g/ha ([14]; 31 g ai/ha, scale 0 to 100): 25%
- pest or weed control at 62 g/ha [14, 21]: 20%
- pest or weed control at 125 g/ha [14, 22]: 25%
- pest or weed control at 16 g/ha ([15]; 16 g ai/ha, scale 0 to 100): 70%
- pest or weed control at 31 g/ha ([15]; 31 g ai/ha, scale 0 to 100): 70%
- pest or weed control at 62 g/ha [15, 21]: 75%
- pest or weed control at 125 g/ha [15, 22]: 98%
- pest or weed control at 16 g/ha (kochia (Kochia scoparia); 16 g ai/ha, scale 0 to 100): 98%
- pest or weed control at 31 g/ha (kochia (Kochia scoparia); 31 g ai/ha, scale 0 to 100): 100%
- pest or weed control at 62 g/ha (kochia (Kochia scoparia); [21]): 100%
- pest or weed control at 125 g/ha (kochia (Kochia scoparia); [22]): 100%
- plant injury at 16 g/ha (soybean (Glycine max) [16]; 16 g ai/ha, scale 0 to 100): 45%
- plant injury at 31 g/ha (soybean (Glycine max) [16]; 31 g ai/ha, scale 0 to 100): 70%
- plant injury at 62 g/ha (soybean (Glycine max) [16]; [21]): 75%
- plant injury at 125 g/ha (soybean (Glycine max) [16]; [22]): 60%
- Corn plant response rating (crop injury, 0 = no effect, 100 = complete kill) at 16 g/ha (corn (Zea mays) [17]; 16 g ai/ha, scale 0 to 100): 10%
- Corn plant response rating (crop injury, 0 = no effect, 100 = complete kill) at 31 g/ha (corn (Zea mays) [17]; 31 g ai/ha, scale 0 to 100): 20%
- plant injury at 62 g/ha (corn (Zea mays) [17]; [21]): 15%
- plant injury at 125 g/ha (corn (Zea mays) [17]; [22]): 15%
- Plant response rating, Waterhemp ([18]; 16 g ai/ha): 85
- Plant response rating, Waterhemp ([18]; 31 g ai/ha): 98
- Waterhemp plant response rating ([18]; 62 g ai/ha): 100
- Waterhemp plant response rating ([18]; 125 g ai/ha): 100
- plant injury at 16 g/ha ([19]; 16 g ai/ha, scale 0 to 100): 5%
- plant injury at 31 g/ha ([19]; 31 g ai/ha, scale 0 to 100): 80%
- plant injury at 62 g/ha [19, 21]: 98%
- plant injury at 125 g/ha [19, 22]: 50%
- pest or weed control at 16 g/ha ([20]; 16 g ai/ha, scale 0 to 100): 15%
- pest or weed control at 31 g/ha ([20]; 31 g ai/ha, scale 0 to 100): 10%
- pest or weed control at 62 g/ha [20, 21]: 25%
- pest or weed control at 125 g/ha [20, 22]: 60%
